In patent EP4435060A1, “SILICON PHTHALOCYANINE AND TRIBENZOPHTHALOCYANINE DYES AND THEIR USE IN DIAGNOSIS AND THERAPY” (Albert-Ludwigs-Universität Freiburg, priority 2023, dated 2024):

Experiments:
[1] = UV/VIS absorption spectra; assay type: physicochemical; conditions: for λmax (UV/VIS spectrum): in H2O, 5 - 16 µM (Figure 13) or 4 - 15 µM (Figure 14); for bathochromic shift compared to the absorption maximum of Li-Cor-A: versus λmax = 680 nm
[2] = tested on: prostate cancer cells; assay: PIT controls on the prostate cancer cell lines of Figure 16E (free dye; conjugate without irradiation); assay type: cell-based, human; conditions: equimolar concentrations of free dye, 32 J/cm^2 red light, in words
Experimental: 2.5*10^5 cells were seeded per well in 35 mm cell culture dishes (Thermo Fischer Scientific) and cultivated for 24 h in the incubator (37°C, 5% CO2). On the next day, cell culture medium was removed and fresh medium containing the appropriate treatment (medium, 10 µg/ml antibody, 10 µg/ml conjugate or the equimolar amount of free dye) was administered to the cells. After incubation (37°C, 5% CO2, 24h), the cells were washed with 1x PBS and irradiated with a red light-emitting diode (LED), which emits light at λmax = 680 nm (L690-66-60, Marubeni, Tokyo, Japan) or a LED, which emits light at (λmax = 780 nm) (L780-66-60-550) at various mean irradiation doses. Power densities were quantified with an optical power meter (PM 100, Thorlabs, Newton, USA). After 24h, cell viability was analyzed using the vital dye erythrosine b (Logos Biosystems, Gyeonggi-do, South Korea) and the Neubauer Counting Chamber. Significance of the data was calculated with the Student's t test (unpaired, parametric with Welch's […]) using the GraphPad Prism 7 software (GraphPad Software Inc., San Diego, USA).

| Substance | λalmost max (UV/VIS spectrum) ([1]; 4 - 15 µM in H2O, pathlength = 1 cm) [nm] | λmax (UV/VIS spectrum) ([1]; pathlength = 1 cm) [nm] | absorption maximum λmax in the UV/VIS spectrum [1] [nm] | bathochromic shift compared to the absorption maximum of Li-Cor-A [1] [nm] | viability of irradiated cells incubated with free dye [2] |
| --- | --- | --- | --- | --- | --- |
| 2-(4-Iodophenoxy)-29,31-bis[(3,4,5-tris{[1-(sodium 3-sulfonatopropyl)-1,2,3-triazol-4-yl]methoxy}phenyl)methoxy]silanediyl-29H,31H-silicon tribenzophthalocyanine [compound 31] | 765 | 795 | – | – | – |
| 2-(4-[4-({[7-oxo-7-(perfluorophenoxy) heptyl]ca rbamoyl} oxy) but-1-yn-1-yl]phenoxy)-29,31-bis[(3,4,5-tris{[1-(sodium 3-sulfonatopropyl)-1,2,3-triazol-4-yl]methoxy}phenyl)methoxy]silanediyl-29H,31H-silicon phthalocyanine [WB692-LB2] | – | – | 692 | 12 | – |
| 2-({[({4-[(2,5-Dihydro-1H-2,5-dioxopyrrol-1-yl)oxy]-4-oxobut-1-yl}amino)-carbonyloxy]but-1-ynyl}phenoxy)-29,31-bis[(3,4,5-tris{[1-(sodium 3-sulfonatopropyl)-1,2,3-tri-azol-4-yl]methoxy}phenyl)methoxy]silanediyl-29H,31H-silicon tribenzophthalocyanine [WB795-LB1] | – | – | 795 | 115 | – |
| 2-({[({6-[(2,5-Dihydro-1H-2,5-dioxopyrrol-1-yl)oxy]-6-oxohex-1-yl}amino)-carbonyloxy]but-1-ynyl}phenoxy)-29,31-bis[(3,4,5-tris{[1-(sodium 3-sulfonatopropyl)-1,2,3-tri-azol-4-yl]methoxy}phenyl)methoxy]silanediyl-29H,31H-silicon phthalocyanine [WB692-LB1] | – | – | 692 | 12 | – |
| 2-[({5-[(1H-2,5-Dioxopyrrol-1-yl)pent-1-yl]amino]carbonylamino)}but-1-yn-yl)phenoxy]-29,31-bis[(3,4,5-tris{[1-(sodium 3-sulfonatopropyl)-1,2,3-triazol-4-yl]methoxy}-phenyl)methoxy]silanediyl-29H,31H-silicon tribenzophthalocyanine [WB795-CB1] | – | – | 795 | 115 | – |
| 2-[({5-[(1H-2,5-Dioxopyrrol-1-yl)pent-1-yl]amino]carbonylamino)}but-1-yn-yl)phenoxy]-29,31-bis[(3,4,5-tris{[1-(sodium 3-sulfonatopropyl)-1,2,3-triazol-4-yl]methoxy}-phenyl)methoxyjsilanediyl-29H,31H-silicon phthalocyanine [WB692-CB2] | – | – | 692 | 12 | – |
| 2-[({5-[(1H-2,5-Dioxopyrrol-1-yl)pent-1-yl]amino]carbonyloxy)}but-1-yn-yl)phenoxy]-29,31-bis[(3,4,5-tris{[1-(sodium 3-sulfonatopropyl)-1,2,3-triazol-4-yl]methoxy}-phenyl)methoxyjsilanediyl-29H,31H-silicon phthalocyanine [WB692-CB1] | – | 692 | 692 | 12 | remained alive |
